Laboratory results published in patent US20030212013A1, “Use of amp kinase activators for treatment type 2 diabetes and insulin resistance” (priority 2002, published 2003).
Where “and” joins values, the source holds several entries; their conditions need not be identical. Equal entries are not always repeated.

Experiments:
[1] = test system: AMPK; settings: analogues of 5'-AMP; cited from earlier work
[2] = AICAR 0.25 mg/g body weight; normal (C57/BJ6), insulin deficient diabetic (C57/BJ6STZ) and insulin resistant diabetic (KKAy) mice; cited from earlier work
[3] = test system: GLUT4; assay: Total GLUT4 protein (Western blot) in muscles after chronic AICAR injection; type: in vivo, rat
Experimental: This dose was shown in preliminary experiments to increase ZMP levels in the muscle to 0.57±0.06 μmol/g after 15 min, to 0.79±0.06 μmol/g after 60 min, to 0.69±0.06 μmol/g after 90 min, and to 0.60±0.06 μmol/g after 120 minutes (n=3 at each time point). Beginning with the first injection, controls were pair fed with AICAR-injected rats. Saline injected controls ate 17±1 g and AICAR injected rats ate 18±1 g of food during the 24 hour period prior to blood and tissue collection. Rats were anesthetized by intraperitoneal injection of pentobarbital (22-25 hrs following the last AICAR injection) and epitrochlearis, and gastrocnemius/plantaris muscles were collected and frozen as described above. Muscles were kept under liquid nitrogen until analyzed.
(§1) Muscles from rats killed 22-25 hours following the fifth AICAR injection were analyzed for glycogen and GLUT4. For GLUT4 measurement muscle was ground to powder under liquid nitrogen. See Etgen, G. J., et al. Am. J. Physiol. […] Proteins of these homogenates were separated by SDS-PAGE using 10% resolving gels (Tris-HCl ready gels, BIO-RAD, Hercules, Calif.). […] Relative amounts of GLUT4 were then quantified using a Hewlett Packard ScanJet 6200C and SigmaGel software (SPSS, Inc, Chicago, Ill.). Total intensity of GLUT4 spots on the developed hyperfilm was expressed as a fraction of intensity shown by a GLUT4 standard run on the same gel. […]

[4] = Muscle glycogen and food intake after five daily AICAR injections; type: in vivo, rat; settings: 24 hrs following the last of five daily AICAR injections; control 43±2
Experimental: To determine the effect of chronic activation of AMPK, rats were injected (between 8 and 10 am.) subcutaneously with AICAR (1 mg/g body weight) or saline vehicle for five days in succession. This dose was shown in preliminary experiments to increase ZMP levels in the muscle to 0.57±0.06 μmol/g after 15 min, to 0.79±0.06 μmol/g after 60 min, to 0.69±0.06 μmol/g after 90 min, and to 0.60±0.06 μmol/g after 120 minutes (n=3 at each time point). Beginning with the first injection, controls were pair fed with AICAR-injected rats. Saline injected controls ate 17±1 g and AICAR injected rats ate 18±1 g of food during the 24 hour period prior to blood and tissue collection. […] Muscles were kept under liquid nitrogen until analyzed.
as §1, with “GLUT4.” for “GLUT4. For GLUT4 measurement muscle was ground to powder under liquid nitrogen. See Etgen, G. J., et al. Am. J. Physiol.”

[5] = test system: AMPK; assay: AMPK activity in muscles of rats following AICAR injection; type: in vivo, rat; settings: for AMPK activity increase vs saline: 1 hour following AICAR 1 mg/g injection
Excerpt: (§2) All procedures were approved by the Institutional Animal Care and Use Committee. Male Sprague-Dawley rats weighing 197±5 grams (Sasco, Wilmington, Mass. 01887) were housed in individual cages in a temperature (22-25 C.) and light-controlled (12:12-h light-dark cycle) room and were given food (Harlan Teklad rodent diet, Madison, Wis.) and water ad libitum. To determine acute in vivo effects of AICAR, a jugular catheter was installed and exteriorized on the back of the neck three days prior to the day of the experiment. This catheter was implanted for the purpose of allowing rapid anesthesia of the rat and rapid blood and tissue collection. Rats were then given AICAR (1 mg/g body weight) subcutaneously in sterile 0.9% NaCl or were given 0.9% NaCl (n=7 in each group). One hour following the subcutaneous injection of AICAR, rats were anesthetized by intravenous injection of pentobarbital (4.8 mg/100 g body weight). The epitrochlearis and gastrocnemius/plantaris muscles were quickly removed and rapidly frozen with stainless steel clamps at liquid nitrogen temperature. Blood was collected via the abdominal aorta and a perchloric acid extract was prepared (0.5 ml blood to 2.0 ml 10% HClO4), neutralized and utilized for analysis of glucose and lactate.
(§3) Muscles from rats killed 1 hour following injection of AICAR or saline were analyzed for AMPK, citrate-dependence of acetyl-CoA carboxylase, malonyl-CoA, glycogen, ZMP, ZTP, ATP, and ADP. Hassid, W Z. & S. Abraham Methods Enzymol. 3:35-36 (1957); McGarry, J. D. et al. J. Biol. Chem. 253:[…] (1978). Blood glucose and lactate were measured by enzymatic techniques. Bergmeyer, H. U., et al. D-Glucose determination with hexokinase and glucose-phosphate dehydrogenase. In: Methods of Enzymatic Analysis, edited by H. U. Bergmeyer. New York: Academic, 1196-1201 (1974); Gutmann I., & A. W. Wahlefeld. L-(+)-Lactate. Determination with lactate dehydrogenase and NAD. In: Methods of Enzymatic Analysis, edited by H. U. Bergmeyer. New York: Academic, 1464-1468 (1974).
Referring to FIG. 1, the AMPK activity in epitrochlearis and gastrocnemius/plantaris muscles of rats 1 hour following injection with 1 mg/g body weight AICAR or with saline is shown. Values are means ±SEM. […] AMPK activity was increased 2.4 fold in gastrocnemius/plantaris muscles and 4 fold in the epitrochlearis muscles 1 hour following the AICAR injection.

[6] = Preliminary time course of muscle ZMP after AICAR injection; type: in vivo, rat; settings: AICAR 1 mg/g s.c., n=3, preliminary experiments
Experimental: (§4) To determine the effect of chronic activation of AMPK, rats were injected (between 8 and 10 am.) subcutaneously with AICAR (1 mg/g body weight) or saline vehicle for five days in succession. This dose was shown in preliminary experiments to increase ZMP levels in the muscle to 0.57±0.06 μmol/g after 15 min, to 0.79±0.06 μmol/g after 60 min, to 0.69±0.06 μmol/g after 90 min, and to 0.60±0.06 μmol/g after 120 minutes (n=3 at each time point). Beginning with the first injection, controls were pair fed with AICAR-injected rats. Saline injected controls ate 17±1 g and AICAR injected rats ate 18±1 g of food during the 24 hour period prior to blood and tissue collection. Rats were anesthetized by intraperitoneal injection of pentobarbital (22-25 hrs following the last AICAR injection) and epitrochlearis, and gastrocnemius/plantaris muscles were collected and frozen as described above. Muscles were kept under liquid nitrogen until analyzed.

[7] = Tissue and blood metabolites of rats after acute AICAR injection; type: in vivo, rat; settings: AICAR 1 mg/g s.c., 60 minutes following injection, mean ± SEM n=7
Excerpt: as §2, §3

[8] = test system: acetyl-CoA carboxylase; assay: Citrate dependence of acetyl-CoA carboxylase in muscles of AICAR-injected rats; type: in vivo, rat; settings: 1 hour following AICAR 1 mg/g
Excerpt: as §2
Muscles from rats killed 1 hour following injection of AICAR or saline were analyzed for AMPK, citrate-dependence of acetyl-CoA carboxylase, malonyl-CoA, glycogen, ZMP, ZTP, ATP, and ADP. Hassid, W Z. & S. Abraham Methods Enzymol. […] Blood glucose and lactate were measured by enzymatic techniques. […]
Referring to FIG. 2, the citrate dependence of acetyl-CoA carboxylase in gastrocnemius/plantaris muscles of rats 1 hour following injection with AICAR (1 mg/g body weight) or saline is illustrated. Standard errors were determined but are not shown. […] Because of the limited amount of tissue, the entire citrate activation curve could not be determined for epitrochlearis muscle, but the activity of ACC at a physiological concentration of citrate (0.2 mM) was reduced from 0.50±0.10 nmol/g/min to 0.10±0.03 nmol/g/min.

[9] = Tolerability of daily AICAR injections; type: in vivo, rat; settings: rats 197±5 grams, 1 mg/g body weight daily
Experimental: ATP and ADP were not influenced by the injection with AICAR. ZTP increased from non-detectable levels to 1.2 μmol/g. […] Muscle glycogen and liver glycogen were not acutely influenced 60 minutes following a single injection of AICAR.

[10] = test system: hexokinase; assay: Hexokinase activity in muscles after 5 days of AICAR injections; type: in vivo, rat; settings: 5 days AICAR 1 mg/g/d, both epitrochlearis and gastrocnemius/plantaris, p<0.001
Experimental: as §4
Hexokinase activity was determined spectrophotometrically at 30 C on 700×g supernatants of the same homogenate as was used for GLUT4 measurement Uyeda, K. & E. Racker, J Biol Chem 240:4682-4688 (1965).

[11] = resting rats injected with AICAR

Nc1ncnc2c([C@@H]3O[C@H](COP(=O)(O)O)[C@@H](O)[C@H]3O)[nH]nc12 [Formycin A 5′-monophosphate]
Potency of AMPK activation in vitro [1]: less potently

NC(=O)c1ncn([C@@H]2O[C@H](COP(=O)(O)O)[C@@H](O)[C@H]2O)c1N [ZMP]
Potency of AMPK activation in vitro [1]: less potently

Nc1ncnc2c1ncn2[C@@H]1O[C@H](COP(O)(O)=S)[C@@H](O)[C@H]1O [adenosine-5′-thiomonophosphate]
Potency of AMPK activation in vitro [1]: more potently

Nc1ncnc2c1ncn2[C@@H]1O[C@H](COP(N)(=O)O)[C@@H](O)[C@H]1O [adenosine 5′-phosphoramidate]
Potency of AMPK activation in vitro [1]: more potently

NC(=O)c1ncn([C@@H]2O[C@H](CO)[C@@H](O)[C@H]2O)c1N [AICAR, 5-aminoimidazole-4-carboxamide ribonucleoside]
Duration of acute decrease in blood glucose [2]: 4 to 6 h
GLUT4 in epitrochlearis and gastrocnemius/plantaris ([3]; AICAR 1 mg/g/d for five days, vs saline, p<0.001 epitrochlearis, p<0.01 gastrocnemius): marked increases
Total GLUT4 ([3]; larger rats (350-450 grams), AICAR 0.5 mg/g body weight, n=5/group, control 0.32±0.05, preliminary experiments): 0.76±0.08 arbitrary units
Gastrocnemius/plantaris glycogen [4]: 87±4 μmol glucose units/g
AMPK activity increase vs saline ([5]; epitrochlearis muscles): 4 fold
AMPK activity increase vs saline ([5]; gastrocnemius/plantaris muscles): 2.4 fold
Duration of increase in muscle AMPK activity [5, 11]: at least two
Time to increase in muscle AMPK activity after injection [5, 11]: ≤ 15 min
ZMP level in muscle ([6]; after 15 min): 0.57 ± 0.06 µmol/g
ZMP level in muscle ([6]; after 60 min): 0.79 ± 0.06 µmol/g
ZMP level in muscle ([6]; after 90 min): 0.69 ± 0.06 µmol/g
ZMP level in muscle ([6]; after 120 minutes): 0.60 ± 0.06 µmol/g
Muscle ADP ([7]; gastrocnemius/plantaris): 0.97 ± 0.02 µmol/g
Muscle ATP ([7]; gastrocnemius/plantaris): 7.6 ± 0.1 µmol/g
Muscle Glycogen ([7]; gastrocnemius/plantaris): 44 ± 4 µmol/g
Muscle Malonyl-CoA ([7]; gastrocnemius/plantaris): 0.6 ± 0.1 nmol/g
Muscle ZMP ([7]; gastrocnemius/plantaris): 0.91 ± 0.02 µmol/g
Muscle ZTP ([7]; gastrocnemius/plantaris): 1.2 µmol/g and 1.18 ± 0.09 µmol/g
Blodd Glucose [7]: 5.6 ± 0.6 mM
Blood Lactate [7]: 6.8 ± 0.5 mM
Liver Glycogen [7]: 344 ± 44 µmol/g
Activity of ACC at physiological citrate (0.2 mM) ([8]; epitrochlearis, saline 0.50±0.10): 0.10±0.03 nmol/g/min
ACC citrate activation constant (Ka) ([8]; gastrocnemius/plantaris, saline 3.1±0.1): 13.0 ± 0.3 mM
ACC maximal velocity (Vmax) as a function of citrate concentration ([8]; gastrocnemius/plantaris, saline 60.1±1.3): 32.4 ± 1.3 nmol/g/min
Tolerance of injections [9]: no apparent discomfort
Hexokinase activity increase over control values [10]: approximately 2.8 fold
